Counter-ions that a name gives are not always drawn. Like-named read-outs stand apart in the source and are kept apart here.
Tests used:
[1] = assay type: physicochemical; details: for loading at which compatible with compositions of WO 02/076212: actual amine
Source text: It is to be understood that the term physical incompatibility in relation to adjuvants used in bipyridyl compositions indicates either gross separation of one or more components of the composition which may or may not be accompanied by a significant change in formulation rheology or bulk homogeneity. It is not necessarily essential that the composition is fully homogeneous in a strict physical sense provided that the composition is substantially homogeneous in the bulk. Thus a slight separation of a second phase may be acceptable provided that the separated phase remains fully dispersed in the bulk. […] This is obviously undesirable for a number of reasons. The term physical compatibility indicates the reverse of physical incompatibility as defined above.

[2] = tested on: eight representative weed species; assay type: in vivo
Protocol: The bioperformance enhancement of paraquat in the presence of amines of the present invention was evaluated. An aqueous formulation of paraquat dichloride containing 0.5% by weight of amine (based on the weight of the parent amine and based on total spray volume) was applied using a moving track sprayer to eight representative weed species at 10, 20 and 40 g/ha (based on paraquat ion). The spray volume was equivalent to 200 l/ha.
Three replicates of each test were undertaken and the biological data (% activity where 0% represents no herbicidal effect and 100% represents complete kill) at 7 days after treatment is expressed in Table 4 as a mean over all species based on an average response over the combined rates. The results are compared with an equivalent formulation containing only paraquat chloride.
The bioperformance enhancement of paraquat in the presence of some amines of the present invention was evaluated. An aqueous formulation of paraquat dichloride containing 0.2% by weight of amine (based on the weight of the parent amine and based on total spray volume) was applied using a moving track sprayer to eight representative weed species at 10, 20 and 40 g/ha (based on paraquat ion). The spray volume was equivalent to 200 l/ha.
Three replicates of each test were undertaken and the biological data (% activity where 0% represents no herbicidal effect and 100% represents complete kill) at 7 days after treatment is expressed in Table 5 as a mean over all species based on an average response over the combined rates. The results are compared with an equivalent standard formulation containing paraquat chloride and 0.2% of an effective adjuvant blend

[3] = tested on: Ipomoea hederacea (IPOHE); assay type: in vivo
Source text: (§1) TEDA was first neutralized with hydrochloric acid to form the TEDA hydrochloride. An aqueous formulation of paraquat dichloride containing 0.5% by weight of TEDA based on total spray volume was applied to test species Ipomoea hederacea (IPOHE) and Sida spinosa (SIDSP) at 10 and 30 g/ha (based on paraquat ion). The spray volume was equivalent to 200 L/ha The biological data (% activity) at 6 days after treatment is expressed in Table 1 as an average response over the combined rates and is compared with an equivalent formulation containing only paraquat chloride.
(§2) The following compositions were compared using the general procedure of Example 1. TEDA was used in the form of its hydrochloride: • 1. An aqueous formulation containing paraquat dichloride and 0.5% by weight of TEDA hydrochloride based on total spray volume; • 2. An aqueous formulation containing paraquat dichloride and 0.5% by weight based on total spray volume of a mixture of TEDA hydrochloride and the surfactant EMPIGEN BB and TEDA at a ratio of TEDA to EMPIGEN BB of 5:2. EMPIGEN BB is lauryl betaine supplied at a concentration of 30%. The proportions given above and below are based on lauryl betaine content. • 3. An aqueous formulation (comparison) containing paraquat dichloride and 0.5% by weight based on total spray volume of EMPIGEN BB • 4. An aqueous formulation containing paraquat dichloride and 0.5% by weight based on total spray volume of a mixture of TEDA hydrochloride and the surfactant AGRIMUL PG2067 and TEDA at a ratio of TEDA to AGRIMUL PG2067 of 5:2. AGRIMUL PG2067 is an alkylpolyglycoside supplied at a concentration of 70%. The proportions given above and below are based on alkylpolyglycoside content. • 5. An aqueous formulation (comparison) containing paraquat chloride and 0.5% by weight based on total spray volume of AGRIMUL PG2067.

Sida spinosa (SIDSP) = assay type: in vivo
Source text: as §1, §2

[4] = Example 4, 0.5% by weight amine, paraquat 10, 20 and 40 g/ha, 200 l/ha, 7 days after treatment, mean over all species and combined rates, three replicates
[5] = Example 2, general procedure of Example 1, adjuvant 0.5% by weight of total spray volume, TEDA:surfactant 5:2
[6] = Example 3, procedure of Example 1, adjuvant 0.5% by weight of total spray volume, TEDA salts with anionic surfactants

Structure (SMILES): CCCCCCCCOC(=O)CC(C(=O)OCCCCCCCC)S(=O)(=O)O.[Na] (stereo not shown) [sodium dioctyl sulphosuccinate, reference compound]
- level at which physical separation / two phases observed ([1]; about 120 g/l paraquat ion, about 80 g/l diquat ion, alginate, about 120 g/l magnesium sulphate heptahydrate): below 10 g/l

Structure (SMILES): CN(C)CCN(C)C [TMEDA as HCl salt, tetramethylethylenediamine]
- Mean Activity (%) [2, 4]: 59%
- Mean Activity (%) ([2]; Example 5, 0.2% by weight amine, paraquat 10, 20 and 40 g/ha, 200 l/ha, 7 days after treatment, mean over all species and combined rates, three replicates): 56%
- loading at which compatible with compositions of WO 02/076212 [1]: ≤ 30 g/L

Structure (SMILES): NCCN [EDA as HCl salt, ethylenediamine, reference compound]
- Mean Activity (%) ([2]; in vivo): 54%

Structure (SMILES): C1CN2CCN1CC2 [TEDA, Triethylenediamine]
- Mean Activity (%) [2, 4]: 61%
- % Activity IPOHE [3, 5]: 64.4%
- % Activity IPOHE [3, 6]: 63.8%
- % Activity SIDSP (Sida spinosa (SIDSP); [5]): 35.8%
- % Activity SIDSP (Sida spinosa (SIDSP); [6]): 45.9%
- loading at which compatible with compositions of WO 02/076212 [1]: ≥ 60 g/L

Structure (SMILES): NCCNCCNCCN [TETA as HCl salt, triethylenetetramine, reference compound]
- Mean Activity (%) ([2]; in vivo): 60%
- loading at which compatible with compositions of WO 02/076212 [1]: less than 30 g/l
